Converted amounts (≈) assume the structure as drawn. Read-outs that look alike come from different tables or passages of the source.
What was measured:
[1] = tested on: S. aureus isolates; details: for MIC: Staphylococcus aureus
[2] = tested on: S. aureus clinical isolates; assay: Synergistic effect with oxacillin (oxacillin MIC alone and in presence of SIC); format: cell-based, Staphylococcus aureus; details: Staphylococcus aureus
Method: The synergistic effect (interaction) of HN18 and HN34 with different antibiotics against S. aureus clinical isolates was studied. The oxacillin MIC values of 8 clinical isolates of Staphylococcus aureus were determined. The oxacillin MIC of the same isolates were also determined after they were exposed to SIC of HN18, HN34 (Table 5). […] Column 2 and 3 show the oxacillin MIC value of the same isolates in presence of SIC of HN18 and HN34 respectively.

[3] = tested on: 24 strains of S. aureus (SA1-SA24); assay: Broth micro-dilution MIC against 24 strains of S. aureus; format: cell-based; details: for MIC: Staphylococcus aureus, read-out: Compound MIC
Method: Compounds were tested for their anti-bacterial activity against 56 clinical isolates including 24 clinical isolates of methicillin resistant S. aureus (MRSA) and methicillin-susceptible S. aureus (MSSA), 8 strains of Enterococcus, 8 strains of Acinetobacter baumannii, 8 strains of Klebsiella pneumoniae, and 8 strains of Pseudomonas aeruginosa using a standard broth micro-dilution method as recommended by the Clinical and Laboratory Standard Institute (CLSI, M100, s23).
HN18 HN19, and HN34 were tested by a broth micro-dilution method to determine their minimal inhibitory concentration (MIC) against 24 strains of S. aureus (SA1-SA24) (Table 2). […]. Furthermore, the results for HN18 and HN34 were consistent across four repeated experiments. […]

## O=C(N[C@H](CO)[C@H](O)c1ccc([N+](=O)[O-])cc1)C(Cl)Cl [chloramphenicol]
[1]; read-out: Chloramphenicol MIC
  MIC: > 40 µg/mL

## Cc1onc(-c2ccccc2)c1C(=O)N[C@@H]1C(=O)N2[C@@H]1SC(C)(C)[C@@H]2C(=O)O [Oxacillin, reference compound]
[1]; read-out: Oxacillin MIC
  MIC: > 16 µg/mL
[1]; isolates SA1, SA2, prior to exposure to sub-inhibitory concentration of HN18 and HN34
  Oxacillin MIC: > 16 µg/mL
[2]; isolate SA3, oxacillin tested alone
  MIC: > 16 µg/mL
[2]; isolate SA4, oxacillin tested alone
  MIC: > 16 µg/mL
[2]; isolate SA5, oxacillin tested alone
  MIC: > 16 µg/mL
[2]; isolate SA9, oxacillin tested alone
  MIC: > 16 µg/mL
[2]; isolate SA10, oxacillin tested alone
  MIC: 16 µg/mL
[2]; isolate SA11, oxacillin tested alone
  MIC: 8 µg/mL
[2]; isolate SA15, oxacillin tested alone
  MIC: > 16 µg/mL
[2]; isolate SA18, oxacillin tested alone
  MIC: > 16 µg/mL

## COc1cc(/C=C/C(=O)C(=Cc2ccc(F)c(F)c2)C(=O)/C=C/c2ccc(O)c(OC)c2)ccc1O [HN19, (1E,6E)-1,7-bis(4-hydroxy-3-methoxyphenyl)hepta-1,6-diene{4(3,4 difluorobenzylidene)}-3,5-dione]
[3]; 24 strains SA1-SA24, broth micro-dilution
  Effect against the panel of S. aureus strains: effective
[3]; isolate SA1, experiment I
  MIC: 1 µg/mL (≈ 2.03 µM)
[3]; isolate SA1, experiment II
  MIC: 8 µg/mL (≈ 16.2 µM)
[3]; isolate SA1, experiment III
  MIC: 8 µg/mL (≈ 16.2 µM)
[3]; isolate SA1, experiment IV
  MIC: 16 µg/mL (≈ 32.5 µM)
[3]; isolate SA2, experiment I
  MIC: 1 µg/mL (≈ 2.03 µM)
[3]; isolate SA2, experiment II
  MIC: 4 µg/mL (≈ 8.12 µM)
[3]; isolate SA2, experiment III
  MIC: 4 µg/mL (≈ 8.12 µM)
[3]; isolate SA2, experiment IV
  MIC: 8 µg/mL (≈ 16.2 µM)
[3]; isolate SA3, experiment I
  MIC: 1 µg/mL (≈ 2.03 µM)
[3]; isolate SA3, experiment II
  MIC: 4 µg/mL (≈ 8.12 µM)
[3]; isolate SA3, experiment III
  MIC: 8 µg/mL (≈ 16.2 µM)
[3]; isolate SA3, experiment IV
  MIC: 8 µg/mL (≈ 16.2 µM)
[3]; isolate SA4, experiment I
  MIC: 2 µg/mL (≈ 4.06 µM)
[3]; isolate SA4, experiment II
  MIC: 4 µg/mL (≈ 8.12 µM)
[3]; isolate SA4, experiment III
  MIC: 8 µg/mL (≈ 16.2 µM)
[3]; isolate SA4, experiment IV
  MIC: 1 µg/mL (≈ 2.03 µM)
[3]; isolate SA5, experiment I
  MIC: 0.5 µg/mL (≈ 1.02 µM)
[3]; isolate SA5, experiment II
  MIC: 2 µg/mL (≈ 4.06 µM)
[3]; isolate SA5, experiment III
  MIC: 4 µg/mL (≈ 8.12 µM)
[3]; isolate SA5, experiment IV
  MIC: 8 µg/mL (≈ 16.2 µM)
[3]; isolate SA6, experiment I
  MIC: 0.5 µg/mL (≈ 1.02 µM)
[3]; isolate SA6, experiment II
  MIC: 4 µg/mL (≈ 8.12 µM)
[3]; isolate SA6, experiment III
  MIC: 4 µg/mL (≈ 8.12 µM)
[3]; isolate SA6, experiment IV
  MIC: 8 µg/mL (≈ 16.2 µM)
[3]; isolate SA7, experiment I
  MIC: 0.5 µg/mL (≈ 1.02 µM)
[3]; isolate SA7, experiment II
  MIC: 4 µg/mL (≈ 8.12 µM)
[3]; isolate SA7, experiment III
  MIC: 4 µg/mL (≈ 8.12 µM)
[3]; isolate SA7, experiment IV
  MIC: 8 µg/mL (≈ 16.2 µM)
[3]; isolate SA8, experiment I
  MIC: 0.5 µg/mL (≈ 1.02 µM)
[3]; isolate SA8, experiment II
  MIC: 4 µg/mL (≈ 8.12 µM)
[3]; isolate SA8, experiment III
  MIC: 8 µg/mL (≈ 16.2 µM)
[3]; isolate SA8, experiment IV
  MIC: 8 µg/mL (≈ 16.2 µM)
[3]; isolate SA9, experiment I
  MIC: 0.5 µg/mL (≈ 1.02 µM)
[3]; isolate SA9, experiment II
  MIC: 0.5 µg/mL (≈ 1.02 µM)
[3]; isolate SA10, experiment I
  MIC: 2 µg/mL (≈ 4.06 µM)
[3]; isolate SA10, experiment II
  MIC: 4 µg/mL (≈ 8.12 µM)
[3]; isolate SA11, experiment I
  MIC: 1 µg/mL (≈ 2.03 µM)
[3]; isolate SA11, experiment II
  MIC: 2 µg/mL (≈ 4.06 µM)
[3]; isolate SA12, experiment I
  MIC: 2 µg/mL (≈ 4.06 µM)
[3]; isolate SA12, experiment II
  MIC: 4 µg/mL (≈ 8.12 µM)
[3]; isolate SA13, experiment I
  MIC: 1 µg/mL (≈ 2.03 µM)
[3]; isolate SA13, experiment II
  MIC: 4 µg/mL (≈ 8.12 µM)
[3]; isolate SA14, experiment I
  MIC: 2 µg/mL (≈ 4.06 µM)
[3]; isolate SA14, experiment II
  MIC: 2 µg/mL (≈ 4.06 µM)
[3]; isolate SA15, experiment I
  MIC: 1 µg/mL (≈ 2.03 µM)
[3]; isolate SA15, experiment II
  MIC: 1 µg/mL (≈ 2.03 µM)
[3]; isolate SA16, experiment I
  MIC: 0.25 µg/mL (≈ 0.508 µM)
[3]; isolate SA16, experiment II
  MIC: 0.5 µg/mL (≈ 1.02 µM)
[3]; isolate SA17, experiment I
  MIC: 2 µg/mL (≈ 4.06 µM)
[3]; isolate SA17, experiment II
  MIC: 4 µg/mL (≈ 8.12 µM)
[3]; isolate SA18, experiment I
  MIC: 1 µg/mL (≈ 2.03 µM)
[3]; isolate SA18, experiment II
  MIC: 4 µg/mL (≈ 8.12 µM)
[3]; isolate SA19, experiment I
  MIC: 1 µg/mL (≈ 2.03 µM)
[3]; isolate SA19, experiment II
  MIC: 4 µg/mL (≈ 8.12 µM)
[3]; isolate SA20, experiment I
  MIC: 1 µg/mL (≈ 2.03 µM)
[3]; isolate SA20, experiment II
  MIC: 4 µg/mL (≈ 8.12 µM)
[3]; isolate SA21, experiment I
  MIC: 2 µg/mL (≈ 4.06 µM)
[3]; isolate SA21, experiment II
  MIC: 8 µg/mL (≈ 16.2 µM)
[3]; isolate SA22, experiment I
  MIC: 2 µg/mL (≈ 4.06 µM)
[3]; isolate SA22, experiment II
  MIC: 4 µg/mL (≈ 8.12 µM)
[3]; isolate SA23, experiment I
  MIC: 2 µg/mL (≈ 4.06 µM)
[3]; isolate SA23, experiment II
  MIC: 4 µg/mL (≈ 8.12 µM)
[3]; isolate SA24, experiment I
  MIC: 1 µg/mL (≈ 2.03 µM)
[3]; isolate SA24, experiment II
  MIC: 4 µg/mL (≈ 8.12 µM)
